Experimental data taken from patent US4906614A, “Method of treating posttraumatic nervous injuries with dipeptide derivatives” (Gruenenthal GmbH, priority 1985, dated 1990).

What was measured:
[1] = test system: Cats After Traumatic Spinal Cord Injury; experiment: Neurologic recovery in cats after traumatic spinal cord injury (C-7 weight-drop); format: in vivo, cat; set-up: key to total functional score (forelimb + hindlimb scores): sum of forelimb + hindlimb scores, each 0 = no movement to 5 = normal; conditions: for neurologic and motoric function compared with saline: after 6 weeks
Method: Cats anesthetized with sodium pentobarbital were subjected under aseptic conditions to a laminectomy to expose the C-7 spinal segment. With the dura intact, the spinal cord was traumatized by dropping a 20 g weight a distance of 30 cm through a guide tube onto a 10 square-millimeter impact plate. Drugs were given intravenously as a bolus injection (0.5 ml) at 1 and 3 hours after injury. A group of 9 animals was treated with 0.2mg/kg of orotyl-L-histidyl-L-prolinamide dissolved in 0.5 ml of physiological saline. A second group of 7 animals was given 1 mg/kg L-pyro-2-aminoapidyl-L-nistidyl-thiazolidine-4-carboxamide (also dissolved in 0.5 ml of physiological saline), which compound is referred to hereinafter as "compound A" and which has been described in the literature as an active TRH-modification product and has also been compared with the aforementioned orotylL-histidyl-L-prolinamide (c.f. Metcalf in Thyrotropin Releasing Hormone, E. C. Griffiths et al., eds., Raven Press, New York, 1983, pp. 315-26). A control group of 11 animals was treated with 0.5 ml of physiological saline per animal.
Neurologic function was evaluated weekly for six weeks by a neurologist who was unaware of the treatment group and assessed according to a six-point ordinal scale as described by Faden et al. in Neurology, Vol. 33, pp. 673-678 (1983). Forelimb and hindlimb function were scored separately as follows: 0 =absence of voluntary movement; 1 =spontaneous movement but inability to support weight; 2=ability to support weight but unable to walk; 3=ability to walk but with marked spasticity and/or ataxia; 4=ability to run but with mild spasticity or ataxia; and 5=normal motor function. Forelimb and hindlimb scores were then added together to obtain a total functional score.

[2] = test system: experimental spinal cord injury; conditions: animal experiments; treatment during the first 24 hours following the trauma; cited from earlier work
[3] = test system: brain stem compression in cats; conditions: cited from earlier work

With `NC(=O)C1CSCN1C(=O)[C@H](Cc1c[nH]cn1)NC(=O)[C@@H]1CCCC(=O)N1` (stereo partly drawn) [A, L-pyro-2-aminoapidyl-L-nistidyl-thiazolidine-4-carboxamide] the “neurologic and motoric function compared with saline” value ([1]; 1 mg/kg i.v. at 1 and 3 hours after injury) was “did not differ significantly from those of saline”, the “total functional score (forelimb + hindlimb scores)” value (“total functional score” for short) ([1]; week 1 after injury, 1 mg/kg i.v. bolus at 1 and 3 hours after injury, n = 7) was 4 and the “total functional score” value ([1]; week 2 after injury, 1 mg/kg i.v. bolus at 1 and 3 hours after injury, n = 7) was 5. For the same molecule, the “total functional score” value ([1]; week 3 after injury, 1 mg/kg i.v. bolus at 1 and 3 hours after injury, n = 7) was 5, the “total functional score” value ([1]; week 4 after injury, 1 mg/kg i.v. bolus at 1 and 3 hours after injury, n = 7) was 5 and the “total functional score” value ([1]; week 5 after injury, 1 mg/kg i.v. bolus at 1 and 3 hours after injury, n = 7) was 6. The “total functional score” value ([1]; week 6 after injury, 1 mg/kg i.v. bolus at 1 and 3 hours after injury, n = 7) was 6.
In the case of `NC(=O)[C@@H]1CCCN1C(=O)[C@H](Cc1c[nH]cn1)NC(=O)c1cc(=O)[nH]c(=O)[nH]1` [Compound of Invention, orotyl-L-histidyl-L-prolinamide], the “neurologic and motoric function compared with saline” value ([1]; 0.2 mg/kg i.v. at 1 and 3 hours after injury) is reported as “significantly improved”, the “total functional score” value ([1]; week 1 after injury, 0.2 mg/kg i.v. bolus at 1 and 3 hours after injury, n = 9) is reported as 6 and the “total functional score” value ([1]; week 2 after injury, 0.2 mg/kg i.v. bolus at 1 and 3 hours after injury, n = 9) is reported as 6. The “total functional score” value ([1]; week 3 after injury, 0.2 mg/kg i.v. bolus at 1 and 3 hours after injury, n = 9) was 6, the “total functional score” value ([1]; week 4 after injury, 0.2 mg/kg i.v. bolus at 1 and 3 hours after injury, n = 9) was 7 and the “total functional score” value ([1]; week 5 after injury, 0.2 mg/kg i.v. bolus at 1 and 3 hours after injury, n = 9) was 8. For the same molecule, the “total functional score” value ([1]; week 6 after injury, 0.2 mg/kg i.v. bolus at 1 and 3 hours after injury, n = 9) was 8.
For `NC(=O)[C@@H]1CCCN1C(=O)[C@H](Cc1c[nH]cn1)NC(=O)[C@@H]1CCC(=O)N1` [TRH, L-pyroglutamyl-L-histidyl-L-prolinamide], the “recovery of the motoric function after experimental spinal cord injury” value [2] is listed as “significantly improves recovery of the motoric function” and the “effect on EEG alterations resulting from traumata of the brain” value [3] is listed as “dose-dependent positive effect”.
